Measured values reported in US8778889B2, “Antimicrobial decapeptide oral hygiene treatment” (The United States of America as represented by the …, priority 2003, dated 2014).
In brackets after ≈: the same amount, converted by molar mass. Square brackets hold non-standard residues; d marks the D form. Peptide text beside a SMILES is read from it. αMeK = C[C@](N)(CCCCN)C(=O)O

What was measured:
A. baumannii WRAMC #4 = format: cell-based, Acinetobacter baumannii
Text: (§1) As shown in the table below, many drug-resistant pathogens including multidrug-resistant Acinetobacter baumannii (clinical isolates) were susceptible to the bactericidal activity of the newly developed antimicrobial peptides. […] This is shown by their lower MIC and MBC against a number of antibiotic-resistant bacteria including methicillin-resistant Staphylococcus aureus, vancomycin-resistant Enterococci, and multidrug-resistant Acinetobacter baumannii. Many of these resistant strains are involved in nosocomial infections, which affect the immunocompromised and the elderly individuals with weakened defenses. The tests were done in a broth microdilution assay as described in our earlier publication (Concannon et al., 2003).

A. baumannii WRAMC #15 = format: cell-based, Acinetobacter baumannii
Text: as §1

A. baumannii WRAMC #18 = format: cell-based, Acinetobacter baumannii
Text: as §1

A. baumannii WRAMC #8 = format: cell-based, Acinetobacter baumannii
Text: as §1

A. baumannii WRAMC #14 = format: cell-based, Acinetobacter baumannii
Text: as §1

A. baumannii WRAMC #11 = format: cell-based, Acinetobacter baumannii
Text: as §1

A. baumannii WRAMC #5 = format: cell-based, Acinetobacter baumannii
Text: as §1

A. baumannii WRAMC #16 = format: cell-based, Acinetobacter baumannii
Text: as §1

A. baumannii WRAMC #2 = format: cell-based, Acinetobacter baumannii
Text: as §1

A. baumannii WRAMC #17 = format: cell-based, Acinetobacter baumannii
Text: as §1

A. baumannii WRAMC #19 = format: cell-based, Acinetobacter baumannii
Text: as §1

A. baumannii WRAMC #13 = format: cell-based, Acinetobacter baumannii
Text: as §1

A. baumannii ATCC #19606 = format: cell-based, Acinetobacter baumannii
Text: as §1

MRSA VVRAMC #10 = format: cell-based, Staphylococcus aureus
Text: as §1

MRSA WRAMC #9 = format: cell-based, Staphylococcus aureus
Text: as §1

MRSA VVRAMC #1 = format: cell-based, Staphylococcus aureus
Text: as §1

MRSA ATCC #33591 = format: cell-based, Staphylococcus aureus
Text: as §1

MRSA ATCC #43300 = format: cell-based, Staphylococcus aureus
Text: as §1

MRSA WRAMC #12 = format: cell-based, Staphylococcus aureus
Text: as §1

VRE WRAMC #6 = format: cell-based, Enterococci
Text: as §1

VRE ATCC #51299 = format: cell-based, Enterococci
Text: as §1

VRE VVRAMC #7 = format: cell-based, Enterococci
Text: as §1

VRE WRAMC #3 = format: cell-based, Enterococci
Text: as §1

| Molecule | MBC (A. baumannii WRAMC #4) | MIC (A. baumannii WRAMC #4) | MBC (A. baumannii WRAMC #18) | MBC (A. baumannii WRAMC #8) | MBC (A. baumannii WRAMC #14) | MBC (A. baumannii WRAMC #11) | MBC (A. baumannii WRAMC #5) | MBC (A. baumannii WRAMC #16) | MIC (A. baumannii WRAMC #16) | MBC (A. baumannii WRAMC #2) | MBC (A. baumannii WRAMC #17) | MIC (A. baumannii WRAMC #17) | MBC (A. baumannii WRAMC #13) | MBC (MRSA VVRAMC #10) | MIC (MRSA VVRAMC #10) | MBC (MRSA WRAMC #9) | MBC (MRSA VVRAMC #1) | MBC (MRSA ATCC #33591) | MIC (MRSA ATCC #33591) | MBC (MRSA ATCC #43300) | further results |
| --- | --- | --- | --- | --- | --- | --- | --- | --- | --- | --- | --- | --- | --- | --- | --- | --- | --- | --- | --- | --- | --- |
| H-DDDEEKFLRRIGRYGKKVVFWVKFK-NH2 [H1-2] | 50 µg/mL | 25 µg/mL | 25 µg/mL | 25 µg/mL | 50 µg/mL | 50 µg/mL | 25 µg/mL | 25 µg/mL | 12.5 µg/mL | 200 µg/mL | 100 µg/mL | 25 µg/mL | 50 µg/mL | 25 µg/mL | 1.56 µg/mL | 3.125 µg/mL | 25 µg/mL | 12.5 µg/mL | 3.125 µg/mL | 12.5 µg/mL | MBC (A. baumannii WRAMC #15): 50 µg/mL; MIC (A. baumannii WRAMC #15): 25 µg/mL; MIC (A. baumannii WRAMC #11): 25 µg/mL; MIC (A. baumannii WRAMC #2): 25 µg/mL; MBC (A. baumannii WRAMC #19): 200 µg/mL; MBC (A. baumannii ATCC #19606): 25 µg/mL; MIC (A. baumannii ATCC #19606): 12.5 µg/mL; MIC (MRSA ATCC #43300): 3.125 µg/mL; MBC (MRSA WRAMC #12): 6.25 µg/mL; MIC (MRSA WRAMC #12): 3.125 µg/mL; MBC (VRE WRAMC #6): 6.25 µg/mL; MIC (VRE WRAMC #6): <1.56 µg/mL; MBC (VRE ATCC #51299): 50 µg/mL; MIC (VRE ATCC #51299): 12.5 (25) μg/ml; MIC (VRE VVRAMC #7): <1.56 µg/mL; MBC (VRE VVRAMC #7; VRE VVRAMC #7): 0 µg/mL; MBC (VRE WRAMC #3): 25 µg/mL; MIC (VRE WRAMC #3): 6.25 µg/mL |
| CC(C)[C@H](NC(=O)[C@H](CCCCN)NC(=O)[C@@H](N)CCCCN)C(=O)N[C@H](C(=O)N[C@@H](Cc1ccccc1)C(=O)N[C@@](C)(CCCCN)C(=O)N[C@H](C(=O)N[C@@H](CCCCN)C(=O)N[C@@H](Cc1ccccc1)C(=O)N[C@@H](CCCCN)C(N)=O)C(C)C)C(C)C [KSL-M, NH2-Lys-Lys-Val-Val-Phe-Lys(me)-Val-Lys-Phe-Lys-CONH2] (H-KKVVF[αMeK]VKFK-NH2) | 50 µg/mL (≈ 39.6 µM) | 25 µg/mL (≈ 19.8 µM) | 100 µg/mL (≈ 79.1 µM) | >200 µg/mL | 200 µg/mL (≈ 158 µM) | 100 µg/mL (≈ 79.1 µM) | 50 µg/mL (≈ 39.6 µM) | 100 µg/mL (≈ 79.1 µM) | 50 µg/mL (≈ 39.6 µM) | 200 µg/mL (≈ 158 µM) | 200 µg/mL (≈ 158 µM) | 100 µg/mL (≈ 79.1 µM) | 200 µg/mL (≈ 158 µM) | >200 µg/mL | >200 µg/mL | >200 µg/mL | >200 µg/mL | >200 µg/mL | >200 µg/mL | >200 µg/mL | MIC (A. baumannii WRAMC #8): >200 µg/mL; MIC (MRSA WRAMC #9): >200 µg/mL; MIC (MRSA VVRAMC #1): >200 µg/mL; MIC (MRSA ATCC #43300): >200 µg/mL; MBC (MRSA WRAMC #12): >200 µg/mL; MIC (MRSA WRAMC #12): >200 µg/mL |
